# Measurements published in ChEMBL document CHEMBL1156337, “Synthesis and evaluation of novel benzothiazole derivatives based on the bithiophene structure as potential radiotracers for beta-amyloid plaques in Alzheimer's disease” (Bioorg Med Chem, 2010).
# Active and inactive are the calls of the source. The rule behind the calls is not given here.
# Key:
# [1] = Displacement of [125I]TZDM from amyloid beta (1 to 40) aggregates after 2 hrs
# [2] = Displacement of [125I]TZDM from amyloid beta (1 to 42) aggregates after 2 hrs
# Mus musculus [3] = species on record: Mus musculus; assay: Binding affinity to beta amyloid plaques in brain sections of TgC57 transgenic mouse transfected with APP and PS1 double mutant after 10 mins using thioflavin-S stain; format: tissue-based
# Mus musculus [4] = species on record: Mus musculus; assay: Binding affinity to beta amyloid plaques in brain sections of TgC57 transgenic mouse transfected with APP and PS1 double mutant after 30 mins by autoradiography; format: tissue-based; conditions: tested as the 125I-labelled form
# Mus musculus [5] = species on record: Mus musculus; assay: Binding affinity to beta amyloid plaques in brain sections of TgC57 transgenic mouse transfected with APP and PS1 double mutant after 30 mins by autoradiography in the presence of thioflavin-T; format: tissue-based; conditions: tested as the 125I-labelled form
# Muscle tissue [6] = assay: Biodistribution in muscle of Kunming mouse at 1 uCi, iv after 60 mins by gamma counting; format: ADME, organism-based; conditions: in vivo, 1 h
# Muscle tissue [7] = assay: Biodistribution in muscle of Kunming mouse at 1 uCi, iv after 120 mins by gamma counting; format: ADME, organism-based; conditions: in vivo, 2 h
# Muscle tissue [8] = assay: Biodistribution in muscle of Kunming mouse at 1 uCi, iv after 240 mins by gamma counting; format: ADME, organism-based; conditions: in vivo, 4 h
# [9] = Partition coefficient, log D in n-octanol/0.05 M phosphate buffer at pH 7.4; format: physicochemical
# Blood [10] = assay: Biodistribution in blood of Kunming mouse at 1 uCi, iv after 30 mins by gamma counting; format: ADME, organism-based; conditions: in vivo, 0.5 h
# Blood [11] = assay: Biodistribution in blood of Kunming mouse at 1 uCi, iv after 2 mins by gamma counting; format: ADME, organism-based; conditions: in vivo
# Blood [12] = assay: Biodistribution in blood of Kunming mouse at 1 uCi, iv after 60 mins by gamma counting; format: ADME, organism-based; conditions: in vivo, 1 h
# Blood [13] = assay: Biodistribution in blood of Kunming mouse at 1 uCi, iv after 120 mins by gamma counting; format: ADME, organism-based; conditions: in vivo, 2 h
# Blood [14] = assay: Biodistribution in blood of Kunming mouse at 1 uCi, iv after 240 mins by gamma counting; format: ADME, organism-based; conditions: in vivo, 4 h
# Brain [15] = assay: Biodistribution in brain of Kunming mouse at 1 uCi, iv after 2 mins by gamma counting; format: ADME, organism-based; conditions: in vivo
# Brain [16] = assay: Biodistribution in brain of Kunming mouse at 1 uCi, iv after 30 mins by gamma counting; format: ADME, organism-based; conditions: in vivo, 0.5 h
# Brain [17] = assay: Biodistribution in brain of Kunming mouse at 1 uCi, iv after 60 mins by gamma counting; format: ADME, organism-based; conditions: in vivo, 1 h
# Brain [18] = assay: Biodistribution in brain of Kunming mouse at 1 uCi, iv after 120 mins by gamma counting; format: ADME, organism-based; conditions: in vivo, 2 h
# Brain [19] = assay: Biodistribution in brain of Kunming mouse at 1 uCi, iv after 240 mins by gamma counting; format: ADME, organism-based; conditions: in vivo, 4 h
# Heart [20] = assay: Biodistribution in heart of Kunming mouse at 1 uCi, iv after 2 mins by gamma counting; format: ADME, organism-based; conditions: in vivo
# Heart [21] = assay: Biodistribution in heart of Kunming mouse at 1 uCi, iv after 30 mins by gamma counting; format: ADME, organism-based; conditions: in vivo, 0.5 h
# Heart [22] = assay: Biodistribution in heart of Kunming mouse at 1 uCi, iv after 60 mins by gamma counting; format: ADME, organism-based; conditions: in vivo, 1 h
# Heart [23] = assay: Biodistribution in heart of Kunming mouse at 1 uCi, iv after 120 mins by gamma counting; format: ADME, organism-based; conditions: in vivo, 2 h
# Heart [24] = assay: Biodistribution in heart of Kunming mouse at 1 uCi, iv after 240 mins by gamma counting; format: ADME, organism-based; conditions: in vivo, 4 h
# Liver [25] = assay: Biodistribution in liver of Kunming mouse at 1 uCi, iv after 2 mins by gamma counting; format: ADME, organism-based; conditions: in vivo
# Liver [26] = assay: Biodistribution in liver of Kunming mouse at 1 uCi, iv after 30 mins by gamma counting; format: ADME, organism-based; conditions: in vivo, 0.5 h
# Liver [27] = assay: Biodistribution in liver of Kunming mouse at 1 uCi, iv after 60 mins by gamma counting; format: ADME, organism-based; conditions: in vivo, 1 h
# Liver [28] = assay: Biodistribution in liver of Kunming mouse at 1 uCi, iv after 120 mins by gamma counting; format: ADME, organism-based; conditions: in vivo, 2 h
# Liver [29] = assay: Biodistribution in liver of Kunming mouse at 1 uCi, iv after 240 mins by gamma counting; format: ADME, organism-based; conditions: in vivo, 4 h
# Spleen [30] = assay: Biodistribution in spleen of Kunming mouse at 1 uCi, iv after 2 mins by gamma counting; format: ADME, organism-based; conditions: in vivo
# Spleen [31] = assay: Biodistribution in spleen of Kunming mouse at 1 uCi, iv after 30 mins by gamma counting; format: ADME, organism-based; conditions: in vivo, 0.5 h
# Spleen [32] = assay: Biodistribution in spleen of Kunming mouse at 1 uCi, iv after 60 mins by gamma counting; format: ADME, organism-based; conditions: in vivo, 1 h
# Spleen [33] = assay: Biodistribution in spleen of Kunming mouse at 1 uCi, iv after 120 mins by gamma counting; format: ADME, organism-based; conditions: in vivo, 2 h
# Spleen [34] = assay: Biodistribution in spleen of Kunming mouse at 1 uCi, iv after 240 mins by gamma counting; format: ADME, organism-based; conditions: in vivo, 4 h
# Lung [35] = assay: Biodistribution in lung of Kunming mouse at 1 uCi, iv after 2 mins by gamma counting; format: ADME, organism-based; conditions: in vivo
# Lung [36] = assay: Biodistribution in lung of Kunming mouse at 1 uCi, iv after 30 mins by gamma counting; format: ADME, organism-based; conditions: in vivo, 0.5 h
# Lung [37] = assay: Biodistribution in lung of Kunming mouse at 1 uCi, iv after 60 mins by gamma counting; format: ADME, organism-based; conditions: in vivo, 1 h
# Lung [38] = assay: Biodistribution in lung of Kunming mouse at 1 uCi, iv after 120 mins by gamma counting; format: ADME, organism-based; conditions: in vivo, 2 h
# Lung [39] = assay: Biodistribution in lung of Kunming mouse at 1 uCi, iv after 240 mins by gamma counting; format: ADME, organism-based; conditions: in vivo, 4 h
# Kidney [40] = assay: Biodistribution in kidney of Kunming mouse at 1 uCi, iv after 2 mins by gamma counting; format: ADME, organism-based; conditions: in vivo
# Kidney [41] = assay: Biodistribution in kidney of Kunming mouse at 1 uCi, iv after 30 mins by gamma counting; format: ADME, organism-based; conditions: in vivo, 0.5 h
# Kidney [42] = assay: Biodistribution in kidney of Kunming mouse at 1 uCi, iv after 60 mins by gamma counting; format: ADME, organism-based; conditions: in vivo, 1 h
# Kidney [43] = assay: Biodistribution in kidney of Kunming mouse at 1 uCi, iv after 120 mins by gamma counting; format: ADME, organism-based; conditions: in vivo, 2 h
# Kidney [44] = assay: Biodistribution in kidney of Kunming mouse at 1 uCi, iv after 240 mins by gamma counting; format: ADME, organism-based; conditions: in vivo, 4 h
# Stomach [45] = assay: Biodistribution in stomach of Kunming mouse at 1 uCi, iv after 2 mins by gamma counting measured per organ; format: ADME, organism-based; conditions: in vivo
# Stomach [46] = assay: Biodistribution in stomach of Kunming mouse at 1 uCi, iv after 30 mins by gamma counting measured per organ; format: ADME, organism-based; conditions: in vivo, 0.5 h
# Stomach [47] = assay: Biodistribution in stomach of Kunming mouse at 1 uCi, iv after 60 mins by gamma counting measured per organ; format: ADME, organism-based; conditions: in vivo, 1 h
# Stomach [48] = assay: Biodistribution in stomach of Kunming mouse at 1 uCi, iv after 120 mins by gamma counting measured per organ; format: ADME, organism-based; conditions: in vivo, 2 h
# Stomach [49] = assay: Biodistribution in stomach of Kunming mouse at 1 uCi, iv after 240 mins by gamma counting measured per organ; format: ADME, organism-based; conditions: in vivo, 4 h
# Muscle tissue [50] = assay: Biodistribution in muscle of Kunming mouse at 1 uCi, iv after 2 mins by gamma counting; format: ADME, organism-based; conditions: in vivo
# Muscle tissue [51] = assay: Biodistribution in muscle of Kunming mouse at 1 uCi, iv after 30 mins by gamma counting; format: ADME, organism-based; conditions: in vivo, 0.5 h
smiles,measurement,setting,value
CN(C)c1ccc(-c2nc3ccc(I)cc3s2)cc1,Ki,[1],2.2 nM
same,Ki,[2],0.9 nM
Ic1ccc2nc(-c3ccc(-c4cccs4)s3)sc2c1,Activity,Mus musculus [3],Active
same,Activity,Mus musculus [4],Active
same,Activity,Mus musculus [5],inactive
same,Ki,[1],0.31 nM
same,Ki,[2],0.25 nM
[125I]c1ccc2nc(-c3ccc(-c4cccs4)s3)sc2c1,Drug uptake,Muscle tissue [6],1.47 % ID/g
same,Drug uptake,Muscle tissue [7],1.23 % ID/g
same,Drug uptake,Muscle tissue [8],0.87 % ID/g
same,logD,[9],3.65
same,Drug uptake,Blood [10],2.12 % ID/g
same,Drug uptake,Blood [11],9.02 % ID/g
same,Drug uptake,Blood [12],1.96 % ID/g
same,Drug uptake,Blood [13],1.76 % ID/g
same,Drug uptake,Blood [14],1.36 % ID/g
same,Drug uptake,Brain [15],3.42 % ID/g
same,Drug uptake,Brain [16],1.08 % ID/g
same,Drug uptake,Brain [17],0.53 % ID/g
same,Drug uptake,Brain [18],0.51 % ID/g
same,Drug uptake,Brain [19],0.5 % ID/g
same,Drug uptake,Heart [20],4.39 % ID/g
same,Drug uptake,Heart [21],2.49 % ID/g
same,Drug uptake,Heart [22],2.65 % ID/g
same,Drug uptake,Heart [23],1.5 % ID/g
same,Drug uptake,Heart [24],1.31 % ID/g
same,Drug uptake,Liver [25],53.64 % ID/g
same,Drug uptake,Liver [26],39.81 % ID/g
same,Drug uptake,Liver [27],29.12 % ID/g
same,Drug uptake,Liver [28],22.47 % ID/g
same,Drug uptake,Liver [29],13.82 % ID/g
same,Drug uptake,Spleen [30],12.75 % ID/g
same,Drug uptake,Spleen [31],6.78 % ID/g
same,Drug uptake,Spleen [32],8.61 % ID/g
same,Drug uptake,Spleen [33],3.5 % ID/g
same,Drug uptake,Spleen [34],2.07 % ID/g
same,Drug uptake,Lung [35],17.51 % ID/g
same,Drug uptake,Lung [36],8.04 % ID/g
same,Drug uptake,Lung [37],8.01 % ID/g
same,Drug uptake,Lung [38],5.76 % ID/g
same,Drug uptake,Lung [39],3.72 % ID/g
same,Drug uptake,Kidney [40],4 % ID/g
same,Drug uptake,Kidney [41],7.22 % ID/g
same,Drug uptake,Kidney [42],8.52 % ID/g
same,Drug uptake,Kidney [43],7.33 % ID/g
same,Drug uptake,Kidney [44],5.76 % ID/g
same,Drug uptake,Stomach [45],0.39 %ID
same,Drug uptake,Stomach [46],2.47 %ID
same,Drug uptake,Stomach [47],4.05 %ID
same,Drug uptake,Stomach [48],4.39 %ID
same,Drug uptake,Stomach [49],3.24 %ID
same,Drug uptake,Muscle tissue [50],0.65 % ID/g
same,Drug uptake,Muscle tissue [51],1.01 % ID/g
Brc1ccc2nc(-c3ccc(-c4cccs4)s3)sc2c1,Activity,Mus musculus [3],Active
same,Ki,[1],0.57 nM
same,Ki,[2],0.6 nM
COc1ccc2nc(-c3ccc(-c4cccs4)s3)sc2c1,Activity,Mus musculus [3],Active
same,Ki,[1],0.6 nM
same,Ki,[2],2.09 nM
CNc1ccc(-c2nc3ccc(O)cc3s2)cc1 [PITTSBURGH COMPOUND B UNLABELLED],Ki,[1],0.77 nM
